Where two headings read alike, the source gives them in different places.
Tests used:
aldose reductase (AR) = molecular target: T1, aldose reductase (AR) (Homo sapiens, UniProt P15121); test: AR inhibition assay (NADPH absorbance decrease at 340 nm, DL-glyceraldehyde substrate); format: biochemical; conditions: for IC50: mean ± SD (n = 3), NA = no activity
T1 construct: purchased Prospec-TanyTechnogene Ltd. (Israel)
Description: AR was purchased from Prospec-TanyTechnogene Ltd. (Israel). AR activity was evaluated as previously described. Briefly, the reaction mixture was composed of enzyme solution ([…], 20 μL), NADPH (0.104 mmol·L^-1, 50 μL; Italian Roth, Italy), DL-glyceraldehyde (10 mmol·L^-1, 50 μL; Sigma, U.S.), buffer phosphate (0.1 mol·L^-1), and selected concentrations of test compounds. The reaction was initiated by the addition of DL-glyceraldehyde as the substrate, and PBS was used as the blank control. The use of NAPDH, in parallel to AR activity, was monitored at room temperature for 10 min at 40 s intervals at 340 nm in an EnSpire™ Multimode Plate Reader. […] All assays were performed in triplicate.

[1] = molecular target: inducible nitric oxide synthase (iNOS) (Homo sapiens, UniProt P35228); test: iNOS inhibition assay (Nitric Oxide Synthase Assay Kit, NO production); format: biochemical; conditions: mean ± SD (n = 3); NA = no activity; read-out: IC50, inhibitory effect on iNOS activity
Description: iNOS produces NO by catalyzing a reaction involving L-Arg and oxygen. Its activity was assessed by monitoring NO production using a Nitric Oxide Synthase Assay Kit (Nanjing Jiancheng Bioengineering Institute, China), which was developed based on the method of Fröhlich et al.. […] All assays were performed in triplicate.

[2] = system: human lens epithelial cells (HLECs; SRA 01/04); test: Cell viability (MTT) of HLECs treated with D-galactose; format: cell-based; conditions: for protection of HLECs from apoptosis (concentration not given): D-galactose-induced, tested at 0.1, 0.5, 1.0 μg·mL^-1
Description: Human lens epithelial cells (HLECs; SRA 01/04) were obtained from Dr. Fu Shang, USDA HNRCA at Tufts University, Boston, MA, U.S. and Zhongshan Ophthalmic Center, Sun Yat-sen University, Guangzhou, P. R. China and cultured in minimal essential medium (MEM) supplemented with 20% fetal bovine serum (FBS) and a cocktail of Penicillin-Streptomycin at 37°C in a humid environment containing 5% CO2 [52]. Cells were harvested at 80% confluency by trypsinization, and then fresh culture medium was added to generate single-cell suspensions for use in cell viability assays. HLECs were then seeded in 96-well cell culture grade microplates at a density of 1 × 10^5·mL^-1. After 24 h of incubation, the cells were treated for 72 h with 250 mmol·L^-1 D-galactose with and without test compounds (0.1, 0.5, or 1.0 μg·mL^-1).
Cell viability was assessed using an MTT assay. After the treatments, 20 μL of 5 mg·mL^-1 MTT solution was added to each well, followed by incubation for 4 h at 37°C. The resulting formazan crystals were then dissolved in 150 μL DMSO and absorbance measured at 570 nm using an EnSpire™ Multimode Plate Reader. The results are presented as percentages of cell survival as compared to the untreated control group, and all assays were performed in triplicate.

[3] = read-out: IC50, inhibitory effect on AR activity
[4] = compound at 0.5 μg·mL^-1, 250 mmol·L^-1 D-galactose, 72 h
[5] = compound at 0.1 μg·mL^-1, 250 mmol·L^-1 D-galactose, 72 h
[6] = compound at 1.0 μg·mL^-1, 250 mmol·L^-1 D-galactose, 72 h

Compound: COc1ccc(CCNCc2ccc(O)cc2)cc1OC [Compound 17b, 4-((3,4-dimethoxyphenethylamino)methyl)phenol]
- IC50 (aldose reductase (AR); IC50, inhibitory effect on AR activity): 174 ± 3.38 µM
- melting point: 116.7 to 118.6 °C

Compound: COc1cc(CCc2cc(OC)cc(OC)c2)cc(OC)c1 [Compound 4, 1,2-bis(3,5-dimethoxyphenyl)ethane]
- IC50 (aldose reductase (AR); [3]): 347 ± 3.74 µM
- melting point: 104.6 to 107.9 °C

Compound: Oc1cc(O)cc(CCc2cc(O)cc(O)c2)c1 [Compound 5, 5,5'-(ethane-1,2-diyl)dibenzene-1,3-diol5,5'-(ethane-1,2-diyl)dibenzene-1,3-diol]
- IC50 [1]: 432.6 ± 2.37 µM
- IC50 (aldose reductase (AR); [3]): 288.8 ± 2.16 µM
- melting point: 245.9 to 248.1 °C
- protection of HLECs from apoptosis (concentration not given) [2]: protected HLECs from apoptosis
- protection of HLECs from D-galactose-induced apoptosis [2, 4]: protected HLECs from apoptosis

Compound: COc1ccc(CNc2nc3ccccc3s2)c(O)c1 [Compound 17c, 2-((benzo[d]thiazol-2-ylamino)methyl)-5-methoxyphenol]
- IC50 (aldose reductase (AR); [3]): 243 ± 5.67 µM
- melting point: 184.3 to 185.7 °C
- protection of HLECs from apoptosis (concentration not given) [2]: protected HLECs from apoptosis
- protection of HLECs from D-galactose-induced apoptosis [2, 5]: protected HLECs from apoptosis

Compound: COc1cc(CCc2cccc(OC)c2O)ccc1O [Compound 14b, 4-(2-hydroxy-3-methoxyphenethyl)-2-methoxyphenol]
- IC50 [1]: 433.6 ± 4.23 µM
- IC50 (aldose reductase (AR); [3]): 126 ± 1.3 µM
- protection of HLECs from apoptosis (concentration not given) [2]: protected HLECs from apoptosis
- protection of HLECs from D-galactose-induced apoptosis [2, 5]: protected HLECs from apoptosis

Compound: COc1cc(O)cc(CCc2ccc(O)c(OC)c2)c1 [Compound 14f, 4-[2-(3-hydroxy-5-methoxyphenyl)ethyl]-2-methoxyphenol]
- IC50 [1]: 680.1 ± 3.28 µM
- IC50 (aldose reductase (AR); [3]): 176 ± 3.21 µM

Compound: Oc1cc(O)cc(CCCc2ccc(F)cc2)c1 [Compound 21, 5-(3-(4-fluorophenyl)propyl)benzene-1,3-diol]
- IC50 (aldose reductase (AR); [3]): 556.3 ± 4.37 µM

Compound: COc1cc(CCc2cc(OC)c(O)c(OC)c2)ccc1O [Compound 14a, 4-(4-hydroxy-3-methoxyphenethyl)-2,6-dimethoxyphenol]
- IC50 (aldose reductase (AR); [3]): 17.3 ± 1.72 µM

Compound: Cc1ccc(S(=O)(=O)Nc2ccc(O)cc2)cc1 [Compound 23, N-(4-hydroxyphenyl)-4-methylbenzenesulfonamide]
- IC50 (aldose reductase (AR); [3]): 5.02 ± 2.57 µM

Compound: COc1cc(O)cc(CCc2cccc3ccccc23)c1 [Compound 10, 3-methoxy-5-(2-(naphthalen-1-yl)ethyl)phenol]
- IC50 [1]: 1189 ± 3.31 µM
- IC50 (aldose reductase (AR); [3]): 31.2 ± 1.51 µM
- potency in AR inhibition relative to synthetic gigantol (compound 14f) (aldose reductase (AR); more potent than 14f): 9 fold
- melting point: 103.9 to 106.7 °C
- cell survival (viability) of HLECs against D-galactose-induced apoptosis ([2]; 250 mmol·L^-1 D-galactose, 72 h, MTT, compounds at 0.1, 0.5 or 1.0 μg·mL^-1, percentage of Con): 72.26%
- protection of HLECs from apoptosis (concentration not given) [2]: protected HLECs from apoptosis
- protection of HLECs from D-galactose-induced apoptosis [2, 4]: protected HLECs from apoptosis

Compound: COc1cc(O)cc(CCc2ccc(O)c(OC)c2)c1 [Extractive gigantol, 4-[2-(3-hydroxy-5-methoxyphenyl)ethyl]-2-methoxyphenol, reference compound]
- IC50 [1]: 32.2 ± 2.61 µM
- IC50 (aldose reductase (AR); [3]): 2517 ± 10.3 µM
- protection of HLECs from apoptosis (concentration not given) [2]: protected HLECs from apoptosis
- protection of HLECs from D-galactose-induced apoptosis [2, 6]: protected HLECs from apoptosis

Compound: COc1cc(CCc2cc(Cl)ccc2O)ccc1O [Compound 14e, 4-chloro-2-(4-hydroxy-3-methoxyphenethyl)phenol]
- IC50 (aldose reductase (AR); [3]): 21.8 ± 5.47 µM

Compound: COc1cc(CCc2ccc(O)c(OC)c2)cc(OC)c1 [Compound 14d, 4-(3,5-dimethoxyphenethyl)-2-methoxyphenol]
- IC50 (aldose reductase (AR); [3]): 39.2 ± 2.13 µM

Compound: COc1cc(CCc2ccc(O)c(O)c2)ccc1O [Compound 14c, 4-(4-hydroxy-3-methoxyphenethyl)benzene-1,2-diol]
- IC50 (aldose reductase (AR); [3]): 534 ± 5.44 µM

Compound: CN(C)c1ccc(CCc2cc(O)cc(O)c2)cc1 [Compound 8]
- IC50 (aldose reductase (AR); [3]): 513.4 ± 2.33 µM
- melting point: 152.5 to 154.1 °C
- protection of HLECs from apoptosis (concentration not given) [2]: protected HLECs from apoptosis
- protection of HLECs from D-galactose-induced apoptosis [2, 6]: protected HLECs from apoptosis

Compound: COc1ccc(CCNC(=O)Cc2ccc(O)cc2)cc1OC [Compound 25, N-(3,4-dimethoxyphenethyl)-2-(4-hydroxyphenyl)acetamide]
- IC50 (aldose reductase (AR); [3]): 54.4 ± 2.39 µM
- melting point: 151.7 to 153.2 °C
